Reference: ChEMBL document CHEMBL3351894, “Development and evaluation of ST-1829 based on 5-benzylidene-2-phenylthiazolones as promising agent for anti-leukotriene therapy” (Eur J Med Chem, 2015)
pIC50: −log10 of the molar value. ≈ marks a conversion by molar mass, not a printed value. Calls of active or inactive are those of the source. The calls are words filed in the database; no cut-off is given here.

How the values were obtained:
[1] = biological target: T1, Polyunsaturated fatty acid 5-lipoxygenase (Homo sapiens, UniProt P09917); assay: Inhibition of 5-LO in human PMNL using arachidonic acid as substrate assessed as product formation incubated for 15 mins prior to substrate addition measured after 10 mins by HPLC analysis
T1 sequence (P09917 whole entry): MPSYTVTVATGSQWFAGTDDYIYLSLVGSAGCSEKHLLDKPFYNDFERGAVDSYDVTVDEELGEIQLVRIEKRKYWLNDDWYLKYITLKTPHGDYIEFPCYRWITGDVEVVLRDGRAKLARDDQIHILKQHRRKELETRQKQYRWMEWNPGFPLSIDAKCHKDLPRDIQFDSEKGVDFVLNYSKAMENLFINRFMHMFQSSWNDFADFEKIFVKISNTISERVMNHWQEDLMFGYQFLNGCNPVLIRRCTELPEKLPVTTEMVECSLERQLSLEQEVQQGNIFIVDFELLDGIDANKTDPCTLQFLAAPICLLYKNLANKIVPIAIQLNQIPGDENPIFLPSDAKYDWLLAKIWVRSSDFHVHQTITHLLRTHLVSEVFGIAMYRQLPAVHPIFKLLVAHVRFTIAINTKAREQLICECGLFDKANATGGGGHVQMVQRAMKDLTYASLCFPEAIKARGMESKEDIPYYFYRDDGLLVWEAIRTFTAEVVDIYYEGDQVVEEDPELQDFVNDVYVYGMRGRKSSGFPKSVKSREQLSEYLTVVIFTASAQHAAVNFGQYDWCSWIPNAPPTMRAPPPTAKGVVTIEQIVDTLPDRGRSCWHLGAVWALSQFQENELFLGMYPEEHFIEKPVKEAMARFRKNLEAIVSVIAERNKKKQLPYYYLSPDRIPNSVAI

[2] = biological target: T1, Polyunsaturated fatty acid 5-lipoxygenase; assay: Inhibition of 5-LO in human PMNL S100 extract using arachidonic acid as substrate incubated for 15 mins prior to substrate addition measured after 10 mins by HPLC analysis
[3] = Solubility of the compound in DMSO at RT; assay type: physicochemical
[4] = Solubility of the compound in PBS at pH 7.4 at RT; assay type: physicochemical
[5] = Cytotoxicity against human U937 cells assessed as cell viability at 100 uM after 48 hrs by WST-1 assay; assay type: cell-based, U-937; details: read-out: Activity
[6] = Cytotoxicity against human U937 cells at 100 uM after 48 hrs by LDH assay; assay type: cell-based; details: u-937, 48 h
[7] = biological target: T2, Polyunsaturated fatty acid 5-lipoxygenase (Homo sapiens) (UniProt P09917); details: 0.01 to 1 uM
T2 sequence (whole entry): T1 sequence (P09917 whole entry)
Description: Inhibition of 5-LO in human PMNL using arachidonic acid as substrate assessed as product formation at 0.01 to 1 uM incubated for 15 mins prior to substrate addition measured after 10 mins by HPLC analysis in presence of 10% fetal calf serum

[8] = Cytotoxicity against human U937 cells at 30 uM after 48 hrs by LDH assay; assay type: cell-based; details: u-937, 48 h
[9] = Cytotoxicity against human U937 cells assessed as cell viability after 48 hrs by WST-1 assay; assay type: cell-based; details: U-937, 48 h
[10] = biological target: T2, Polyunsaturated fatty acid 5-lipoxygenase (Homo sapiens); assay: Inhibition of 5-LO in human PMNL using arachidonic acid as substrate assessed as product formation at 1 to 10 uM incubated for 15 mins prior to substrate addition measured after 10 mins by HPLC analysis in presence of 10% fetal calf serum
[11] = biological target: T2, Polyunsaturated fatty acid 5-lipoxygenase (Homo sapiens); assay: Reversible inhibition of 5-LO in human PMNL using arachidonic acid as substrate assessed as product formation incubated for 15 mins followed by compound washout measured after 10 mins by HPLC analysis

Row | SMILES | pIC50 [1] | pIC50 [2] | further results
1 | Cc1ccc(C2=NC(=O)/C(=C/c3[nH]cnc3C)S2)cc1 | 4.83 | 5.22 | –
2 | COc1ccc(/C=C2\C=C(c3ccc(C)cc3)OC2=O)cc1 | < 4.52 | < 4.52 | –
3 | COc1ccc(/C=C2\N=C(c3ccc(C)cc3)OC2=O)cc1 | < 4.52 | < 4.52 | –
4 | COc1ccc(/C=C2\OC(c3ccc(C)cc3)=NC2=O)cc1 | 4.98 | 5.73 | –
5 | Cc1ccc(C2=NC(=O)/C(=C/c3ccc(OC(=O)N4CCOCC4)cc3)S2)cc1 | 6.13 | 6.48 | solubility [3]: 10 mM (≈ 4080 µg/mL); solubility [4]: 0.05 mM (≈ 20.4 µg/mL)
6 | COc1ccc(NC2(OC)SC(c3ccc(C)cc3)=NC2=O)cc1 (stereo unspecified) | < 4.52 | < 4.52 | –
7 | CC(c1cc2ccccc2s1)N(O)C(N)=O (stereo unspecified) [ZILEUTON] | – | – | viability at 48 h, 100 µM [5]: 86.5%; Activity [6]: 1.5%
8 | COC(=O)/C=C/c1ccc(/C=C2\SC(c3ccc(C)cc3)=NC2=O)cc1 | 5.44 | 6.74 | –
9 | Cc1ccc(C2=NC(=O)/C(=C/c3c[nH]c4ccccc34)S2)cc1 | 5.97 | < 5.52 | –
10 | COc1ccc(-c2sc(-c3ccc(Cl)cc3)nc2O)cc1 | 8.00 | 7.30 | solubility [3]: 50 mM (≈ 15900 µg/mL); solubility [4]: 0.05 mM (≈ 15.9 µg/mL); inhibition [7]: Active; Activity [8]: Non-toxic; pIC50 [9]: < 4.52
11 | Cc1ccc(C2=NC(=O)/C(=C/c3ncc[nH]3)S2)cc1 | 5.22 | 5.57 | –
12 | COc1ccc(/C=C2\C=C(c3ccc(C)cc3)NC2=O)cc1 | 4.99 | 4.93 | –
13 | COc1ccc(/C=C2\N=C(c3ccc(C)cc3)NC2=O)cc1 | 5.71 | 5.11 | –
14 | Cc1ccc(C2=NC(=O)/C(=C/c3cccc(S(N)(=O)=O)c3)S2)cc1 | 5.84 | 6.60 | solubility [3]: 30 mM (≈ 10800 µg/mL); solubility [4]: 0.08 mM (≈ 28.7 µg/mL)
15 | COc1ccc(/C=C2\SC(c3ccc(C)cc3)=NC2=O)cc1 | – | – | solubility [3]: 10 mM (≈ 3090 µg/mL); inhibition [10]: inactive; inhibition [11]: Active; solubility [4]: 0.03 mM (≈ 9.28 µg/mL)
16 | COc1ccc(/C=C2\SC(c3ccc(C)cc3)N(C)C2=O)cc1 (stereo unspecified) | 6.03 | < 4.52 | –
17 | COc1ccc(-c2sc(-c3ccc(C)cc3)nc2O)cc1 | 6.37 | 6.77 | solubility [3]: 50 mM (≈ 14900 µg/mL); solubility [4]: 0.05 mM (≈ 14.9 µg/mL)

Row | SMILES | pIC50 [1] | pIC50 [2] | further results
18 | Cc1ccc(C2=NC(=O)/C(=C/c3ccc(OCC(=O)N4CCOCC4)cc3)S2)cc1 | 5.78 | 6.14 | solubility [3]: 20 mM (≈ 8450 µg/mL); solubility [4]: 0.05 mM (≈ 21.1 µg/mL)
19 | Cc1ccc(C2=NC(=O)/C(=C/c3ccc(OCCN4CCOCC4)cc3)S2)cc1 | 5.63 | 6.28 | solubility [3]: 10 mM (≈ 4090 µg/mL); solubility [4]: 0.03 mM (≈ 12.3 µg/mL)
20 | COc1ccc(C(=C2SC(c3ccc(C)cc3)=NC2=O)c2ccc(OC)cc2)cc1 | 5.07 | 5.21 | –
21 | COc1ccc(-c2sc(-c3ccc(C)cc3)nc2C)cc1 | 5.82 | < 4.52 | –
22 | COC1CCC(=Cc2sc(-c3ccc(C)cc3)nc2O)CC1 (stereo unspecified) | 5.81 | 6.23 | –
23 | CCCCCC(O)c1cccc(OCc2ccc3ccccc3n2)c1 (stereo unspecified) [REV-5901] | – | – | viability at 48 h, 100 µM [5]: < 1%; Activity [6]: 22.5%
24 | Cc1ccc(C2=NC(=O)/C(=C/c3ccc(S(C)(=O)=O)cc3)S2)cc1 | 5.28 | 6.72 | –
25 | COc1ccc(/N=C2\SC(c3ccc(C)cc3)=NC2=O)cc1 | 4.99 | 5.09 | –
26 | Cc1ccc(C2=NC(=O)/C(=C/c3ccc[nH]3)S2)cc1 | 5.80 | 5.10 | –
27 | COc1ccc(/C=C2\S/C(=N/c3ccc(C)cc3)NC2=O)cc1 | 5.54 | < 4.52 | –
28 | Cc1ccc(C2=NC(=O)/C(=C/c3ccc(N4CCOCC4)cc3)S2)cc1 | 5.44 | 5.97 | solubility [3]: 10 mM (≈ 3640 µg/mL); solubility [4]: 0.01 mM (≈ 3.64 µg/mL)
29 | Cc1ccc(C2=NC(=O)/C(=C/c3cccs3)S2)cc1 | 6.01 | 6.07 | –
30 | Cc1ccc(-c2nc(O)c(C=C3CCCCC3)s2)cc1 | 6.10 | 6.46 | –
31 | COc1ccc(/C=C2/SC(=S)N(c3ccc(C)cc3)C2=O)cc1 | < 4.52 | < 4.52 | –
32 | Cc1ccc(C2=NC(=O)/C(=C/C34CC5CC(CC(C5)C3)C4)S2)cc1 | 6.39 | 6.92 | –
33 | COc1ccc(Cc2sc(-c3ccc(C)cc3)nc2O)cc1 | 6.14 | 6.70 | solubility [3]: 100 mM (≈ 31100 µg/mL); solubility [4]: 0.08 mM (≈ 24.9 µg/mL)

More lines, main results first:

Row | pIC50 [1] | pIC50 [2] | SMILES | further results
34 | 5.58 | 6.02 | COc1ccc(/C=C2\SC(c3cccnc3)=NC2=O)cc1 | –
35 | 5.54 | 6.52 | COc1ccc(/C=C2\SC(c3cnccn3)=NC2=O)cc1 | –
36 | 5.88 | 6.24 | Cc1ccc(C2=NC(=O)/C(=C/c3ccc(N)cc3)S2)cc1 | –
37 | 5.66 | 6.48 | Cc1ccc(C2=NC(=O)/C(=C/c3ccncc3)S2)cc1 | –
38 | 5.95 | 6.48 | Cc1ccc(C2=NC(=O)/C(=C/c3ccc(O)cc3)S2)cc1 | solubility [3]: 50 mM (≈ 14800 µg/mL); solubility [4]: 0.03 mM (≈ 8.86 µg/mL)
39 | 5.91 | 6.55 | Cc1ccc(C2=NC(=O)/C(=C/c3cccnc3)S2)cc1 | –
40 | 5.52 | 6.36 | COc1ccc(/C=C2\SC(c3ccncc3)=NC2=O)cc1 | –
41 | 6.55 | 7.10 | COc1ccc(/C=C2/SC(c3ccc(Cl)cc3)=NC2=O)cc1 | solubility [3]: 15 mM (≈ 4950 µg/mL); solubility [4]: 0.03 mM (≈ 9.89 µg/mL)
42 | 6.24 | 6.80 | CC(=O)c1ccc(/C=C2\SC(c3ccc(C)cc3)=NC2=O)cc1 | –
43 | < 4.52 | 5.34 | COc1ccc(/C=C2\SC(c3ccc[n+](C)c3)=NC2=O)cc1 | –
44 | 5.08 | 5.84 | Cc1ccc(C2=NC(=O)/C(=C/c3ccc(C(=O)O)cc3)S2)cc1 | –
45 | 6.16 | 6.80 | COC(=O)c1ccc(/C=C2\SC(c3ccc(C)cc3)=NC2=O)cc1 | –
46 | 6.92 | 7.10 | COc1ccc(/C=C2/SC(c3cccc4ccccc34)=NC2=O)cc1 | solubility [3]: 10 mM (≈ 3450 µg/mL); solubility [4]: 0.03 mM (≈ 10.4 µg/mL)
47 | 6.66 | 6.46 | COc1ccc(/C=C/C=C2\SC(c3ccc(C)cc3)=NC2=O)cc1 | –
